#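 All cell lines were grown in 96-well plates and treated with compound for 48 hours. TGI marks complete inhibition of growth.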
# Assays:
# Experiment in all cases: NCI tumour cell line growth inhibition, 48 h
# [1] = tested on: RXF 393 renal
# [2] = tested on: OVCAR-3 ovarian
# [3] = tested on: IGROV1 ovarian
# [4] = tested on: SF-539 CNS
# [5] = tested on: MDA-MB-231 breast
# [6] = tested on: BT-549 breast
# [7] = tested on: OVCAR-8 ovarian
# [8] = tested on: NCI/ADR-RES ovarian
# [9] = tested on: HL-60(TB) leukemia
# [10] = tested on: SNB-75 CNS
# [11] = tested on: HCC-2998 colon
# [12] = tested on: A549 NSCLC
# [13] = tested on: OVCAR-5 ovarian
# [14] = tested on: HOP-92 NSCLC
# [15] = tested on: KM12 colon
# [16] = tested on: SW-620 colon
# [17] = tested on: NCI-H522 lung
# [18] = tested on: RPMI-8226 leukemia
Compound,TGI [1] [µM],TGI [2] [µM],TGI [3] [µM],TGI [4] [µM],TGI [5] [µM],TGI [6] [µM],TGI [7] [µM],TGI [8] [µM],TGI [9] [µM],TGI [10] [µM],TGI [11] [µM],TGI [12] [µM],TGI [13] [µM],TGI [14] [µM],TGI [15] [µM],TGI [16] [µM],TGI [17] [µM],TGI [18] [µM]
CN(C)Cc1cc(N=Nc2ccc(Cl)cc2)ccc1O,27.9,24.2,32.3,34.8,32.2,26.8,30.6,33.4,32.1,28.8,28.6,29.4,26.3,34.6,34.5,30.7,26.3,
N#CCCN(CCC#N)c1ccc(C(N=Nc2ccc(Cl)cc2)=Nc2ccc(F)cc2)cc1,> 100,> 100,> 100,> 100,> 100,> 100,> 100,> 100,,> 100,> 100,> 100,> 100,> 100,> 100,> 100,> 100,> 100
CN(C)CCCNC(=O)c1cc(NC(=O)c2cc(NC(=O)[C@@H]3C[C@H]3C(=O)Nc3cc(C(=O)Nc4cc(C(=O)NCCCN(C)C)n(C)c4)n(C)c3)cn2C)cn1C,,,> 100,> 100,> 100,> 100,> 100,> 100,> 100,> 100,> 100,> 100,> 100,> 100,> 100,> 100,> 100,> 100
Cc1cc(C)n(C(=O)CSc2nnc(SCC(=O)n3nc(C)cc3C)s2)n1,> 100,> 100,,> 100,> 100,> 100,> 100,> 100,> 100,> 100,> 100,> 100,> 100,> 100,> 100,> 100,,> 100
C=C1CC(CN2CCC(=O)NC2=O)(c2ccccc2)OC1=O (stereo unspecified),,31.7,20.7,28.4,32.1,19.9,36.7,32.8,4.04,32.3,29.7,33,29,3.07,46.8,4.78,2.17,7.95
CCC(=O)NCCc1c2c3c(ccnc3c3ncsc13)-c1ccccc1N2,> 100,> 66.5,> 100,7.52,> 68.4,57.3,> 71.1,> 100,> 13.4,> 88.3,,> 53.1,> 100,> 100,> 100,> 100,38.4,19.8
C=CCn1cnc2c(=O)[nH]c(Nc3ccccc3)nc21,,> 100,> 100,> 100,> 100,> 100,> 100,> 100,> 100,> 100,> 100,> 100,> 100,> 100,> 100,> 100,> 100,> 100
COc1ccc(/C=C2/CCS(=O)(=O)c3ccc(C)cc3C2=O)cc1OC,29.6,> 100,22.4,> 100,39.1,35.6,48.1,46.5,51.5,57.2,19.6,> 100,> 100,9.55,23,> 100,,37.6
CC(C)(C)NC(=O)C12C3C4C1C1C2C3C41C(=O)NC(C)(C)C (stereo unspecified),> 100,> 100,> 100,> 100,> 100,> 100,> 100,> 100,> 100,,> 100,> 100,> 100,71.6,> 100,> 100,> 100,
CN1C(=O)C23CCCCC2CC1(c1ccccc1)S3 (stereo unspecified),> 100,> 100,> 100,> 100,> 100,> 100,> 100,> 100,> 100,,,> 100,> 100,> 100,> 100,> 100,> 100,> 100

# Source: PubChem BioAssay (NCI)
